Measured values taken from patent publication US20200016136A1 (VIIV HEALTHCARE UK (NO. 5) LIMITED, priority 2017, published 2020).

Test system: NL-RLuc virus (recombinant NL4-3 HIV with Renilla Luciferase gene)
Experiment: Inhibition of HIV replication (NL-RLuc virus in MT-2 cells, luciferase readout)
Assay type: cell-based, Human immunodeficiency virus (HIV)
Conditions: MT2, 120 h
Method in brief: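 EC50 derived via median effect equation from at least 2 experiments, using luciferase expression as virus-growth readout. Replication-competent NL-RLuc reporter virus (nef partly replaced by Renilla luciferase) infected MT-2 cells with serial compound dilutions; 5-day incubation in RPMI 1640 plus 10% FBS.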

Structure (SMILES) | EC50
Cc1cccc(N2CCc3cc(-c4c(C)nc(C)c([C@H](OC(C)(C)C)C(=O)O)c4N4CCC(C)(C)CC4)ccc3C2)n1 [Example 89, (S)-2-(tert-Butoxy)-2-(4-(4,4-dimethylpiperidin-1-yl)-2,6-dimethyl-5-(2-(6-methylpyridin-2-yl)-1,2,3,4-tetrahydroisoquinolin-6-yl)pyridin-3-yl)acetic Acid] | 3 nM
CCC(C)(C)O[C@H](C(=O)O)c1c(C)nc(C)c(-c2ccc3c(c2)CCN(Cc2ccccc2C)C3)c1N1CCC(C)(C)CC1 [Example 90, (S)-2-(4-(4,4-Dimethylpiperidin-1-yl)-2,6-dimethyl-5-(2-(2-methylbenzyl)-1,2,3,4-tetrahydroisoquinolin-6-yl)pyridin-3-yl)-2-(tert-pentyloxy)acetic Acid] | 4 nM
Cc1nc(C)c([C@H](OC(C)(C)C)C(=O)O)c(N2CCC(C)(C)CC2)c1-c1ccc2c(c1)CCN(c1cc(N3CCOCC3)c(F)cn1)C2 [Example 91, (S)-2-(tert-Butoxy)-2-(4-(4,4-dimethylpiperidin-1-yl)-5-(2-(5-fluoro-4-morpholinopyridin-2-yl)-1,2,3,4-tetrahydroisoquinolin-6-yl)-2,6-dimethylpyridin-3-yl)acetic Acid] | 9 nM
CC1(C)CCN(c2c(-c3ccc4c(c3)CCN(c3ncnc5c3oc3ncccc35)C4)cnc(Cl)c2[C@H](OC(C)(C)C)C(=O)O)CC1 [Example 92, (S)-2-(tert-Butoxy)-2-(2-chloro-4-(4,4-dimethylpiperidin-1-yl)-5-(2-(pyrido[3′,2′:4,5]furo[3,2-d]pyrimidin-4-yl)-1,2,3,4-tetrahydroisoquinolin-6-yl)pyridin-3-yl)acetic Acid] | 0.6 nM
CC1(C)CCN(c2c(-c3ccc4c(c3)CCN(c3nccc(N5CCC(C(C)(C)O)CC5)n3)C4)cnc(Cl)c2[C@H](OC(C)(C)C)C(=O)O)CC1 [Example 93, (S)-2-(tert-Butoxy)-2-(2-chloro-4-(4,4-dimethylpiperidin-1-yl)-5-(2-(4-(4-(2-hydroxypropan-2-yl)piperidin-1-yl)pyrimidin-2-yl)-1,2,3,4-tetrahydroisoquinolin-6-yl)pyridin-3-yl)acetic Acid] | 8 nM
Cc1nc(C)c([C@H](OC(C)(C)C)C(=O)O)c(N2CCC(C)(C)CC2)c1-c1ccc2c(c1)CCN(c1cccc(F)n1)C2 [Example 94, (S)-2-(tert-Butoxy)-2-(4-(4,4-dimethylpiperidin-1-yl)-5-(2-(6-fluoropyridin-2-yl)-1,2,3,4-tetrahydroisoquinolin-6-yl)-2,6-dimethylpyridin-3-yl)acetic Acid] | 4 nM
CC1(C)CCN(c2c(-c3ccc4c(c3)CCN(c3ncnc5c3oc3ccccc35)C4)c(CO)nc(Cl)c2[C@H](OC(C)(C)C)C(=O)O)CC1 [Example 95, (S)-2-(5-(2-(Benzofuro[3,2-d]pyrimidin-4-yl)-1,2,3,4-tetrahydroisoquinolin-6-yl)-2-chloro-4-(4,4-dimethylpiperidin-1-yl)-6-(hydroxymethyl)pyridin-3-yl)-2-(tert-butoxy)acetic acid] | 1 nM
CC1(C)CCN(Cc2nc(Cl)c([C@H](OC(C)(C)C)C(=O)O)c(N3CCC(C)(C)CC3)c2-c2ccc3c(c2)CCN(c2ncnc4c2oc2ccccc24)C3)CC1 [Example 96, (S)-2-(5-(2-(Benzofuro[3,2-d]pyrimidin-4-yl)-1,2,3,4-tetrahydroisoquinolin-6-yl)-2-chloro-4-(4,4-dimethylpiperidin-1-yl)-6-((4,4-dimethylpiperidin-1-yl)methyl)pyridin-3-yl)-2-(tert-butoxy)acetic Acid] | 0.3 nM
Cc1cccc(Cl)c1CN1CCc2cc(-c3c(CO)nc(Cl)c([C@H](OC(C)(C)C)C(=O)O)c3N3CCC(C)(C)CC3)ccc2C1 [Example 97, (S)-2-(tert-Butoxy)-2-(2-chloro-5-(2-(2-chloro-6-methylbenzyl)-1,2,3,4-tetrahydroisoquinolin-6-yl)-4-(4,4-dimethylpiperidin-1-yl)-6-(hydroxymethyl)pyridin-3-yl)acetic Acid] | 2 nM
Cc1cccc(Cl)c1CN1CCc2cc(-c3c(CN(C)CC4CCOCC4)nc(Cl)c([C@H](OC(C)(C)C)C(=O)O)c3N3CCC(C)(C)CC3)ccc2C1 [Example 98, (S)-2-(tert-Butoxy)-2-(2-chloro-5-(2-(2-chloro-6-methylbenzyl)-1,2,3,4-tetrahydroisoquinolin-6-yl)-4-(4,4-dimethylpiperidin-1-yl)-6-((methyl((tetrahydro-2H-pyran-4-yl)methyl)amino)methyl)pyridin-3-yl)acetic Acid] | 0.7 nM
Cc1cc(F)ccc1CN1CCc2cc(-c3c(N)nc(Cl)c([C@H](OC(C)(C)C)C(=O)O)c3N3CCC(C)(C)CC3)ccc2C1 [Example 99, (S)-2-(6-Amino-2-chloro-4-(4,4-dimethylpiperidin-1-yl)-5-(2-(4-fluoro-2-methylbenzyl)-1,2,3,4-tetrahydroisoquinolin-6-yl)pyridin-3-yl)-2-(tert-butoxy)acetic Acid] | 4 nM
CC1(C)CCN(c2c(-c3ccc4c(c3)CCN(c3ncnc5c3oc3ccccc35)C4)c(N)nc(Cl)c2[C@H](OC(C)(C)C)C(=O)O)CC1 [Example 100, (S)-2-(6-Amino-5-(2-(benzofuro[3,2-d]pyrimidin-4-yl)-1,2,3,4-tetrahydroisoquinolin-6-yl)-2-chloro-4-(4,4-dimethylpiperidin-1-yl)pyridin-3-yl)-2-(tert-butoxy)acetic Acid] | 4 nM
CC1(C)CCN(c2c(-c3ccc4c(c3)CCN(c3nccc(-c5cccnc5)n3)C4)c(N)nc(Cl)c2[C@H](OC(C)(C)C)C(=O)O)CC1 [Example 101, (S)-2-(6-Amino-2-chloro-4-(4,4-dimethylpiperidin-1-yl)-5-(2-(4-(pyridin-3-yl)pyrimidin-2-yl)-1,2,3,4-tetrahydroisoquinolin-6-yl)pyridin-3-yl)-2-(tert-butoxy)acetic Acid] | 2 nM
Cc1cccc(Cl)c1CN1CCc2cc(-c3cnc(Cl)c([C@H](OC(C)(C)C)C(=O)O)c3N3CCC(C)(C)CC3)ccc2C1 [Example 102, (S)-2-(tert-Butoxy)-2-(2-chloro-5-(2-(2-chloro-6-methylbenzyl)-1,2,3,4-tetrahydroisoquinolin-6-yl)-4-(4,4-dimethylpiperidin-1-yl)pyridin-3-yl)acetic Acid] | 8 nM
CC1(C)CCN(c2c(-c3ccc4c(c3)CCN(c3ncnc5c3oc3ccccc35)C4)cnc(Cl)c2[C@H](OC(C)(C)C)C(=O)O)CC1 [Example 103, (S)-2-(5-(2-(Benzofuro[3,2-d]pyrimidin-4-yl)-1,2,3,4-tetrahydroisoquinolin-6-yl)-2-chloro-4-(4,4-dimethylpiperidin-1-yl)pyridin-3-yl)-2-(tert-butoxy)acetic Acid] | 2 nM
Cc1nc(C)c([C@H](OC(C)(C)C)C(=O)O)c(N2CCC(C)(C)CC2)c1-c1ccc2c(c1)CCN(c1cc(N3CCC(C(C)(C)O)CC3)ncc1F)C2 [Example 104, (S)-2-(tert-Butoxy)-2-(4-(4,4-dimethylpiperidin-1-yl)-5-(2-(5-fluoro-2-(4-(2-hydroxypropan-2-yl)piperidin-1-yl)pyridin-4-yl)-1,2,3,4-tetrahydroisoquinolin-6-yl)-2,6-dimethylpyridin-3-yl)acetic Acid] | 10 nM
Cc1nc(C)c([C@H](OC(C)(C)C)C(=O)O)c(N2CCC(C)(C)CC2)c1-c1ccc2c(c1)CCN(c1nccc(-c3cccnc3)n1)C2 [Example 105, (S)-2-(tert-Butoxy)-2-(4-(4,4-dimethylpiperidin-1-yl)-2,6-dimethyl-5-(2-(4-(pyridin-3-yl)pyrimidin-2-yl)-1,2,3,4-tetrahydroisoquinolin-6-yl)pyridin-3-yl)acetic Acid] | 1 nM
COc1ncccc1-c1cc(C)nc(N2CCc3cc(-c4c(C)nc(C)c([C@H](OC(C)(C)C)C(=O)O)c4N4CCC(C)(C)CC4)ccc3C2)n1 [Example 106, (S)-2-(tert-Butoxy)-2-(4-(4,4-dimethylpiperidin-1-yl)-5-(2-(4-(2-methoxypyridin-3-yl)-6-methylpyrimidin-2-yl)-1,2,3,4-tetrahydroisoquinolin-6-yl)-2,6-dimethylpyridin-3-yl)acetic Acid] | 8 nM
COc1ccncc1-c1cc(C)nc(N2CCc3cc(-c4c(C)nc(C)c([C@H](OC(C)(C)C)C(=O)O)c4N4CCC(C)(C)CC4)ccc3C2)n1 [Example 107, (S)-2-(tert-Butoxy)-2-(4-(4,4-dimethylpiperidin-1-yl)-5-(2-(4-(4-methoxypyridin-3-yl)-6-methylpyrimidin-2-yl)-1,2,3,4-tetrahydroisoquinolin-6-yl)-2,6-dimethylpyridin-3-yl)acetic Acid] | 1 nM
Cc1nc(C)c([C@H](OC(C)(C)C)C(=O)O)c(N2CCC(C)(C)CC2)c1-c1ccc2c(c1)CCN(c1nccc(-c3cnccn3)n1)C2 [Example 108, (S)-2-(tert-Butoxy)-2-(4-(4,4-dimethylpiperidin-1-yl)-2,6-dimethyl-5-(2-(4-(pyrazin-2-yl)pyrimidin-2-yl)-1,2,3,4-tetrahydroisoquinolin-6-yl)pyridin-3-yl)acetic Acid] | 2 nM
Cc1nc(C)c([C@H](OC(C)(C)C)C(=O)O)c(N2CCC(C)(C)CC2)c1-c1ccc2c(c1)CCN(c1nccc(-c3ccccn3)n1)C2 [Example 109, (S)-2-(tert-Butoxy)-2-(4-(4,4-dimethylpiperidin-1-yl)-2,6-dimethyl-5-(2-(4-(pyridin-2-yl)pyrimidin-2-yl)-1,2,3,4-tetrahydroisoquinolin-6-yl)pyridin-3-yl)acetic Acid] | 1 nM
CC1(C)CCN(c2c(-c3ccc4c(c3)CCN(c3ncnc5c3oc3ccccc35)C4)c(CNCCS(C)(=O)=O)nc(Cl)c2[C@H](OC(C)(C)C)C(=O)O)CC1 [Example 110, (S)-2-(5-(2-(Benzofuro[3,2-d]pyrimidin-4-yl)-1,2,3,4-tetrahydroisoquinolin-6-yl)-2-chloro-4-(4,4-dimethylpiperidin-1-yl)-6-(((2-(methylsulfonyl)ethyl)amino)methyl)pyridin-3-yl)-2-(tert-butoxy)acetic Acid] | 110 nM
